Laboratory results published in the NIST ThermoML archive (doi:10.1021/je900915p).

Columns and labels:
[1] = 298.15 K, 101.33 kPa, Liquid; for viscosity: Capillary tube (Ostwald / Ubbelohde) method
[2] = xn = mol fraction of the nth substance listed; details: 298.15 K, 101 kPa, Liquid; for viscosity: Capillary tube (Ostwald / Ubbelohde) method
[3] = mn = molality of the nth substance listed, in mol/kg; details: 298.15 K, 101 kPa, Liquid; for speed of sound: Pulse-echo method

CC#N [acetonitrile]
[1]
Details	mass density [kg/m3]	viscosity [mPa·s]
–	776.85	0.341

CC#N [acetonitrile] + N#CCCCCC#N
[2], x1 = 1
Details	mass density [kg/m3]	viscosity [mPa·s]
–	776.85	0.341

Cc1ccc2ccc3ccc(C)nc3c2n1.Cc1ccc2ccc3ccc(C)nc3c2n1.[Cu+2].[O-][Cl+3]([O-])([O-])[O-].[O-][Cl+3]([O-])([O-])[O-] [bis-(2,9-dimethyl-1,10-phenanthroline) copper perchlorate] + CC#N
[3]
Details	mass density [kg/m3]	speed of sound [m/s]
m1 = 0.02474	792.91	1273.2
m1 = 0.03841	801.84	1274.5
m1 = 0.05937	815.69	1275.9
m1 = 0.08169	830.27	1277.3
m1 = 0.1218	857.14	1279.7

N#CCCCCC#N [hexanedinitrile]
[1]
Details	mass density [kg/m3]	viscosity [mPa·s]
–	975.26	5.99

N#CCCCCC#N [hexanedinitrile] + CC#N
[2]
Details	mass density [kg/m3]	viscosity [mPa·s]
x2 = 0.5	892.51	1.61
x2 = 0.6	880	1.41
x2 = 0.7	870	1.057
x2 = 0.8	848.59	0.684
x2 = 0.9	818.58	0.506

O=[N+]([O-])[O-].[Ag+] [silver nitrate] + CC#N
[3]
Details	mass density [kg/m3]	speed of sound [m/s]
m1 = 0.0283	785.04	1272
m1 = 0.04474	789.86	1273.5
m1 = 0.06947	797.11	1275.3
m1 = 0.09727	805.38	1277.7
m1 = 0.1285	814.46	1279.5

CC#N.CC#N.CC#N.CC#N.[Cu+].[O-][Cl+3]([O-])([O-])[O-] [tetraacetonitrile copper perchlorate] + CC#N
[3]
Details	mass density [kg/m3]	speed of sound [m/s]
m1 = 0.02538	787.25	1272.1
m1 = 0.03962	793.19	1273.7
m1 = 0.0589	801.28	1275
m1 = 0.08537	812.53	1276.7
m1 = 0.1254	828.76	1278.5

CCCC[N+](CCCC)(CCCC)CCCC.O=[N+]([O-])[O-] [tetrabutylammonium nitrate] + CC#N
[3]
Details	mass density [kg/m3]	speed of sound [m/s]
m1 = 0.02174	781.56	1272.7
m1 = 0.04144	785.96	1273.7
m1 = 0.06482	791.21	1275.2
m1 = 0.08753	796.37	1276.6
m1 = 0.1139	802.45	1279.3

CCCC[N+](CCCC)(CCCC)CCCC.[O-][Cl+3]([O-])([O-])[O-] [tetrabutylammonium perchlorate] + CC#N
[3]
Details	mass density [kg/m3]	speed of sound [m/s]
m1 = 0.02616	783.32	1272.4
m1 = 0.04068	786.97	1273.2
m1 = 0.06312	792.62	1275.2
m1 = 0.09762	801.31	1276.8
m1 = 0.1502	814.61	1278.2
